Experiments:
Experiment in all cases: KINOMEscan
Format in all cases: binding
Details in all cases: read-out: % Ctrl
MEK1 = biological target: T1, MEK1 (Homo sapiens, UniProt Q02750)
T1 construct: purchased DiscoveRx KINOMEscan

DRAK1 = biological target: T2, DRAK1 (Homo sapiens, UniProt Q9UEE5)
T2 construct: purchased DiscoveRx KINOMEscan

[1] = biological target: T3, EGFR(L747-E749del, A750P) (Homo sapiens, UniProt P00533, A750P/DEL747-749)
T3 construct: purchased DiscoveRx KINOMEscan

MRCKB = biological target: T4, MRCKB (Homo sapiens, UniProt Q9Y5S2)
T4 construct: purchased DiscoveRx KINOMEscan

PRKCD = biological target: T5, PRKCD (Homo sapiens, UniProt Q05655)
T5 construct: purchased DiscoveRx KINOMEscan

TBK1 = biological target: T6, TBK1 (Homo sapiens, UniProt Q9UHD2)
T6 construct: purchased DiscoveRx KINOMEscan

p38-gamma = biological target: T7, p38-gamma (Homo sapiens, UniProt P53778)
T7 construct: purchased DiscoveRx KINOMEscan

LOK = biological target: T8, LOK (Homo sapiens, UniProt O94804)
T8 construct: purchased DiscoveRx KINOMEscan

HASPIN = biological target: T9, HASPIN (Homo sapiens, UniProt Q8TF76); parameters: purchased DiscoveRx KINOMEscan
T9 sequence (Q8TF76 1-798): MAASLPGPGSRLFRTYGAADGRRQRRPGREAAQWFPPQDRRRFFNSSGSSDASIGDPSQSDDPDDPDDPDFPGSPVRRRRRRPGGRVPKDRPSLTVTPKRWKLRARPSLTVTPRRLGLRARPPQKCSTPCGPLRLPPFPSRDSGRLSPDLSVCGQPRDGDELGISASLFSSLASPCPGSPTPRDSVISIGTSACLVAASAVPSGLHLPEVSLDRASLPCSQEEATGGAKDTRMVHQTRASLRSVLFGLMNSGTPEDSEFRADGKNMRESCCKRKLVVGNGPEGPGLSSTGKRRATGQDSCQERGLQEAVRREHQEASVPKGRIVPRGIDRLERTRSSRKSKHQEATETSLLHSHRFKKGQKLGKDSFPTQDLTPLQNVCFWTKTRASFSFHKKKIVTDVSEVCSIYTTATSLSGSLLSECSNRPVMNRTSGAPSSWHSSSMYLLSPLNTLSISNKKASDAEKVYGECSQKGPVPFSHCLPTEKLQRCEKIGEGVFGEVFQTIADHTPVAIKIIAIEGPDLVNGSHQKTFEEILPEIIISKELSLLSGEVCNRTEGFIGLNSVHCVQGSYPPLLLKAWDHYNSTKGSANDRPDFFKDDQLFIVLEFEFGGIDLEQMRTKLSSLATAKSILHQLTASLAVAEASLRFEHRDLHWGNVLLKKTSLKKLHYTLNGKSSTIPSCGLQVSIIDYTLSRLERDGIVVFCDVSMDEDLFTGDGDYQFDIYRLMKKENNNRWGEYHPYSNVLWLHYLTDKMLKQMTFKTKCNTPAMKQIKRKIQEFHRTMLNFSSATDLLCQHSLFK

LYN = biological target: T10, LYN (Homo sapiens, UniProt P07948)
T10 construct: purchased DiscoveRx KINOMEscan
T10 sequence (P07948 whole entry): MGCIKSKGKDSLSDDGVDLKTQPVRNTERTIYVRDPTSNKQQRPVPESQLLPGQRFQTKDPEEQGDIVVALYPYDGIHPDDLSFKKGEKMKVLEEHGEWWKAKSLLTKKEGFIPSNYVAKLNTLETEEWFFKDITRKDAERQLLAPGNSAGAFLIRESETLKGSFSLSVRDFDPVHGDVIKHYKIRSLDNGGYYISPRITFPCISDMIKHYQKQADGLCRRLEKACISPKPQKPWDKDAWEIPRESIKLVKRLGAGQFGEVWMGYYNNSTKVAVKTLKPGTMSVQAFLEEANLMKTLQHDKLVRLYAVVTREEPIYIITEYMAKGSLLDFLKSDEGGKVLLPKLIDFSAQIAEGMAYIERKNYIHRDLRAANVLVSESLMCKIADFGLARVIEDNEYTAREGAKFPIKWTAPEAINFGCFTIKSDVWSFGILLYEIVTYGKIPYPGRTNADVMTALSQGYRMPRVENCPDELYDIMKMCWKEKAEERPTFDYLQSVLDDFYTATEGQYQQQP

KIT(V559D,T670I) = biological target: T11, KIT(V559D,T670I) (Homo sapiens, UniProt P10721, T670I/V559D)
T11 construct: purchased DiscoveRx KINOMEscan

WNK4 = biological target: T12, WNK4 (Homo sapiens, UniProt Q96J92)
T12 construct: purchased DiscoveRx KINOMEscan

PRKD2 = biological target: T13, PRKD2 (Homo sapiens, UniProt Q9BZL6)
T13 construct: purchased DiscoveRx KINOMEscan

NDR2 = biological target: T14, NDR2 (Homo sapiens, UniProt Q9Y2H1)
T14 construct: purchased DiscoveRx KINOMEscan
T14 sequence (Q9Y2H1 whole entry): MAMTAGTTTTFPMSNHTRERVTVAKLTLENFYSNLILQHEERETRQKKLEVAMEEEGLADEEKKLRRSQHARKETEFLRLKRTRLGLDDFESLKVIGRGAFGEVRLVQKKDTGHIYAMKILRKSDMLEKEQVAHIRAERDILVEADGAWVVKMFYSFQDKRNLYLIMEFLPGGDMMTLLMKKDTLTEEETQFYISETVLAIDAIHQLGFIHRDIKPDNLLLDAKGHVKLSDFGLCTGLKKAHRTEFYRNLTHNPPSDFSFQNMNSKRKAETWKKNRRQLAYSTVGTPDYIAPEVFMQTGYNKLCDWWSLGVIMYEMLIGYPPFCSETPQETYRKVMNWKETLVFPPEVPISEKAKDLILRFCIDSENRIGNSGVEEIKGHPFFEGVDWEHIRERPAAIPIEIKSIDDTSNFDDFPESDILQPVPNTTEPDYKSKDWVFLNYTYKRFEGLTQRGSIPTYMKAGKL

PIK3CA(H1047L) = biological target: T15, PIK3CA(H1047L) (Homo sapiens, UniProt P42336, H1047L)
T15 construct: purchased DiscoveRx KINOMEscan
T15 sequence (P42336 whole entry H1047L): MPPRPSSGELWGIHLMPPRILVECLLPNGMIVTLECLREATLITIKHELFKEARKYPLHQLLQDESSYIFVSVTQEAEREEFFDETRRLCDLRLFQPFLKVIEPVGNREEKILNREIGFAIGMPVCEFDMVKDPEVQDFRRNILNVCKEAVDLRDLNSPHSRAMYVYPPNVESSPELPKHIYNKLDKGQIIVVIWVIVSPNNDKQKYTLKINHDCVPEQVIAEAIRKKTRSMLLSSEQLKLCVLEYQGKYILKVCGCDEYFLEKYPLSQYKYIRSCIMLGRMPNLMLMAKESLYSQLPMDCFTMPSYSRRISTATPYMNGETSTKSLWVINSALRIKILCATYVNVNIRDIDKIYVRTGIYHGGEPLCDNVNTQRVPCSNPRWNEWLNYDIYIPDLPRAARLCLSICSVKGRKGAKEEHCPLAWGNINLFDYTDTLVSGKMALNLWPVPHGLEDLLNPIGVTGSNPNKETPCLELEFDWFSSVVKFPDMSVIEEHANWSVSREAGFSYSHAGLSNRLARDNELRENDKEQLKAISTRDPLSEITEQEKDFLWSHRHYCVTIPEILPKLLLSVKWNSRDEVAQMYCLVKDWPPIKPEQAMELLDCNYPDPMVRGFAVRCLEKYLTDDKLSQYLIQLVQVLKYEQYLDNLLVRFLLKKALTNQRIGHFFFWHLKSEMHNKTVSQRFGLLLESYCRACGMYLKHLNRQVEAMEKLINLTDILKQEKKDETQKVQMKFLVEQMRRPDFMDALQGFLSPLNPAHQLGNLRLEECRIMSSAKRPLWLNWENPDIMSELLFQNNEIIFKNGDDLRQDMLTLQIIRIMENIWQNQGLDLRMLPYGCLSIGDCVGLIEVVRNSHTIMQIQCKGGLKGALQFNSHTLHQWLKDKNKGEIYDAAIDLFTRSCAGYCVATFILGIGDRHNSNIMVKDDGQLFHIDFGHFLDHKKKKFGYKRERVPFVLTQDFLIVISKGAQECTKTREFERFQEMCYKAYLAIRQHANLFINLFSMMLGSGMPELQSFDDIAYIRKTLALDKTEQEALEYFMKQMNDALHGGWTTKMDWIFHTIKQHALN

FLT3-autoi. = biological target: T16, FLT3-autoi. (Homo sapiens, UniProt P36888)
T16 construct: purchased DiscoveRx KINOMEscan

ABL2 = biological target: T17, ABL2 (Homo sapiens, UniProt P42684)
T17 construct: purchased DiscoveRx KINOMEscan

MYLK4 = biological target: T18, MYLK4 (Homo sapiens, UniProt Q86YV6)
T18 construct: purchased DiscoveRx KINOMEscan
T18 sequence (Q86YV6 whole entry): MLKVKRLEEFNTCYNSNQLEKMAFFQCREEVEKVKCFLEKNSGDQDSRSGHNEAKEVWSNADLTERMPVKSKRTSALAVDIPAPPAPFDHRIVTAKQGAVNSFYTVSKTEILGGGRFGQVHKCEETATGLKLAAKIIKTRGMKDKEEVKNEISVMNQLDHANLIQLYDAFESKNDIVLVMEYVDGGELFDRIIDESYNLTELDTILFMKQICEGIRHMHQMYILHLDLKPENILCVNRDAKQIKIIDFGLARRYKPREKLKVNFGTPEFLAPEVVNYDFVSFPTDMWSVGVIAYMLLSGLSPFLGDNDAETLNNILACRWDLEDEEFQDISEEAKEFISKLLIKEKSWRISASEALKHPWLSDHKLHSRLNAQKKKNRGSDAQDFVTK

PFCDPK1(P.falciparum) = biological target: T19, PFCDPK1(P.falciparum) (Plasmodium falciparum, UniProt P62344)
T19 construct: purchased DiscoveRx KINOMEscan

ERN1 = biological target: T20, ERN1 (Homo sapiens, UniProt O75460)
T20 construct: purchased DiscoveRx KINOMEscan
T20 sequence (O75460 19-977): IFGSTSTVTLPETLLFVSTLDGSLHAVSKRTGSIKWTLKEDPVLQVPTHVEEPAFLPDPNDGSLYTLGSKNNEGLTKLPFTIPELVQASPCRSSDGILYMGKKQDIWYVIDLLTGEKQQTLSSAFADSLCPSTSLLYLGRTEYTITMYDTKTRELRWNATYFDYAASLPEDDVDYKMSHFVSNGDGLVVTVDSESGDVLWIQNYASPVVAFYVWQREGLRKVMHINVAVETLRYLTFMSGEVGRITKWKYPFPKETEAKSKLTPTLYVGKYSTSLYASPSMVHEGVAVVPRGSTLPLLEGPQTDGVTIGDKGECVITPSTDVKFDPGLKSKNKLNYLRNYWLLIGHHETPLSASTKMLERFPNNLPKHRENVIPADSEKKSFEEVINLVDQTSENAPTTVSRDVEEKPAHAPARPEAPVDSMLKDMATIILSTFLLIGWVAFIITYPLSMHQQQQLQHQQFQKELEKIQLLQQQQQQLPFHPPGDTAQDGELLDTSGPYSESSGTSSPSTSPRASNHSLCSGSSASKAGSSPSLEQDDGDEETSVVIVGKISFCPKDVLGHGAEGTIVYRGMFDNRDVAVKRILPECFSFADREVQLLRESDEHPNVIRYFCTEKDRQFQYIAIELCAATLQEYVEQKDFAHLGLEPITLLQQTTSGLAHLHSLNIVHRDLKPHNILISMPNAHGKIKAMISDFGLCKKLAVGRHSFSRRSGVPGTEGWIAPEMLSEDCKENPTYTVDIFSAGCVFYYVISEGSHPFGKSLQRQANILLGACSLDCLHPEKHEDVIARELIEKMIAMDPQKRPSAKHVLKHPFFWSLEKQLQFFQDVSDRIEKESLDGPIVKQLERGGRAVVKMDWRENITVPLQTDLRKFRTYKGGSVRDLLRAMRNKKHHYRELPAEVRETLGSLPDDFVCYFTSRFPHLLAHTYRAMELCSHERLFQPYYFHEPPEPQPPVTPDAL

ICK = biological target: T21, ICK (Homo sapiens, UniProt Q9UPZ9)
T21 construct: purchased DiscoveRx KINOMEscan

TNNI3K = biological target: T22, TNNI3K (Homo sapiens, UniProt Q59H18)
T22 construct: purchased DiscoveRx KINOMEscan

NEK7 = biological target: T23, NEK7 (Homo sapiens, UniProt Q8TDX7)
T23 construct: purchased DiscoveRx KINOMEscan
T23 sequence (Q8TDX7 whole entry): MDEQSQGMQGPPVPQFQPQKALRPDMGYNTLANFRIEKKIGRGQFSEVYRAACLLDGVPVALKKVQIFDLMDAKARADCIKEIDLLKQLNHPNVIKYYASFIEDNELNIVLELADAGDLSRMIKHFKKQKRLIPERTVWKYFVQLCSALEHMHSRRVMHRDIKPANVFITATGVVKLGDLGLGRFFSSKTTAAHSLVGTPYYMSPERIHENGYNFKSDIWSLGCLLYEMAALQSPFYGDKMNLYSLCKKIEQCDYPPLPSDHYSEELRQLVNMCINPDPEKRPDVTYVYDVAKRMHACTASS

MAP4K4 = biological target: T24, MAP4K4 (Homo sapiens, UniProt O95819)
T24 construct: purchased DiscoveRx KINOMEscan

NEK3 = biological target: T25, NEK3 (Homo sapiens, UniProt P51956)
T25 construct: purchased DiscoveRx KINOMEscan

BRAF(V600E) = biological target: T26, BRAF(V600E) (Homo sapiens, UniProt P15056, V600E)
T26 construct: purchased DiscoveRx KINOMEscan

CSNK1G2 = biological target: T27, CSNK1G2 (Homo sapiens, UniProt P78368)
T27 construct: purchased DiscoveRx KINOMEscan

TNK1 = biological target: T28, TNK1 (Homo sapiens, UniProt Q13470)
T28 construct: purchased DiscoveRx KINOMEscan

PRKCI = biological target: T29, PRKCI (Homo sapiens, UniProt P41743)
T29 construct: purchased DiscoveRx KINOMEscan

TGFBR2 = biological target: T30, TGFBR2 (Homo sapiens, UniProt P37173)
T30 construct: purchased DiscoveRx KINOMEscan

ITK = biological target: T31, ITK (Homo sapiens, UniProt Q08881)
T31 construct: purchased DiscoveRx KINOMEscan
T31 sequence (Q08881 whole entry): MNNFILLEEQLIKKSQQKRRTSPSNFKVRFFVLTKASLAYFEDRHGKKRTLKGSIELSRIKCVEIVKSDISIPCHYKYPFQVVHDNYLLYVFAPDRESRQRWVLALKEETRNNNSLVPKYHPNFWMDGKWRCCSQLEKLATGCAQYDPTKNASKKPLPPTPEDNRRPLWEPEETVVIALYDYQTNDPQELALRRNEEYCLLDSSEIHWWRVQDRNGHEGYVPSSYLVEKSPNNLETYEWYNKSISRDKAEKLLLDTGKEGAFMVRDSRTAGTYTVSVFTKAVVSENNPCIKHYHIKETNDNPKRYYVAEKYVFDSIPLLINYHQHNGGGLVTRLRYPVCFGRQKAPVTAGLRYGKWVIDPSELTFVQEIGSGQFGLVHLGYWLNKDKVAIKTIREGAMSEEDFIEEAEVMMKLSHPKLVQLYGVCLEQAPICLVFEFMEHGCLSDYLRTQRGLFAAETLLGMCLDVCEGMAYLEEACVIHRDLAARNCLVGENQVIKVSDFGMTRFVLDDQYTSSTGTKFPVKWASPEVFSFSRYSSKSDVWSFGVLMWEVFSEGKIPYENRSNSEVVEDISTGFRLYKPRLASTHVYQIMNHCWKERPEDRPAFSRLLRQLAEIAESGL

TXK = biological target: T32, TXK (Homo sapiens, UniProt P42681)
T32 construct: purchased DiscoveRx KINOMEscan
T32 sequence (P42681 whole entry): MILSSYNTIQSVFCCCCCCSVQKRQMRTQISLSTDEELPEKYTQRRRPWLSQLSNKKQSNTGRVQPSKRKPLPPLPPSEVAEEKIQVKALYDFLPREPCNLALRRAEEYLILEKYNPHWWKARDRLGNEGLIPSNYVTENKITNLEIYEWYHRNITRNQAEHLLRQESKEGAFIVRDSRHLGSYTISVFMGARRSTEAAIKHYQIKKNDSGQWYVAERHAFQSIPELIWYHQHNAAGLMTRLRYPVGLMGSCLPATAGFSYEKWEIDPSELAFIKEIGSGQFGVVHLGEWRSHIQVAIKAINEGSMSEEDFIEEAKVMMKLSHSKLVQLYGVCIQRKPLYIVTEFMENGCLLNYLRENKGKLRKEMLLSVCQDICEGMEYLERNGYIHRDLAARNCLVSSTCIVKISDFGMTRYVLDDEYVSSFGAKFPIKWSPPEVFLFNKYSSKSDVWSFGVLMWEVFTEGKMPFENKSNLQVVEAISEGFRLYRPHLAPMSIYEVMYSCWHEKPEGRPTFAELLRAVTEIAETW

ERK4 = biological target: T33, ERK4 (Homo sapiens, UniProt P31152)
T33 construct: purchased DiscoveRx KINOMEscan

**Q.** Which results are given for `CN1CCC(CNc2ccc3ncc(C(=O)Nc4cccc(OC(F)(F)F)c4)n3n2)CC1` [Cpd 2]?
**A.** remaining binding at 1 µM (MEK1): 95%; remaining binding at 1 µM (DRAK1): 97%; remaining binding at 1 µM [1]: 84%; remaining binding at 1 µM (MRCKB): 100%; remaining binding at 1 µM (PRKCD): 80%; remaining binding at 1 µM (TBK1): 100%; remaining binding at 1 µM (p38-gamma): 91%; remaining binding at 1 µM (LOK): 90%; remaining binding at 1 µM (HASPIN): 30%; remaining binding at 1 µM (LYN): 98%; remaining binding at 1 µM (KIT(V559D,T670I)): 100%; remaining binding at 1 µM (WNK4): 100%; remaining binding at 1 µM (PRKD2): 87%; remaining binding at 1 µM (NDR2): 91%; remaining binding at 1 µM (PIK3CA(H1047L)): 93%; remaining binding at 1 µM (FLT3-autoi.): 82%; remaining binding at 1 µM (ABL2): 96%; remaining binding at 1 µM (MYLK4): 100%; remaining binding at 1 µM (PFCDPK1(P.falciparum)): 88%; remaining binding at 1 µM (ERN1): 79%; remaining binding at 1 µM (ICK): 93%; remaining binding at 1 µM (TNNI3K): 100%; remaining binding at 1 µM (NEK7): 92%; remaining binding at 1 µM (MAP4K4): 89%; remaining binding at 1 µM (NEK3): 100%; remaining binding at 1 µM (BRAF(V600E)): 100%; remaining binding at 1 µM (CSNK1G2): 100%; remaining binding at 1 µM (TNK1): 56%; remaining binding at 1 µM (PRKCI): 85%; remaining binding at 1 µM (TGFBR2): 100%; remaining binding at 1 µM (ITK): 95%; remaining binding at 1 µM (TXK): 100%; remaining binding at 1 µM (ERK4): 100%

From publication PMC7407272, “Induction of Lysosome Membrane Permeabilization as a Therapeutic Strategy to Target Pancreatic Cancer Stem Cells” (Cancers, 2020)
